Measured values from patent US20090018121A1, “PREVENTIVE AND/OR THERAPEUTIC AGENT FOR RHEUMATOID ARTHRITIS” (Kowa Co., Ltd., priority 2005, published 2009).

Tested on: rat collagen-induced arthritis model
Experiment: Edema suppressing effect in both hindlimbs in rat collagen-induced arthritis model (Edema Index)
Format: in vivo, rat (female Lewis, LEW/Crj)
Parameters: Edema Index: unit not given here
Conditions: sole administration; for Relative index: Edema Index relative to control group; for Relative index / Decrease rate (%) / Edema Index: oral; for Decrease rate (%): of Edema Index vs control group; for Edema Index: mean ± SE
Experimental: Female Lewis rats (LEW/Crj) (obtained from Charles River Laboratories Japan, Inc.) were used as test animals.
This Pre value was used as an index to divide the rats into groups by one-parameter-based block randomization, so that the values in the respective groups averaged out.
The collagen emulsion for sensitization used to induce arthritis in rats was prepared by homogenizing 0.3% Type II collagen liquid (manufactured by Collagen Research Center), Adjuvant Peptide (manufactured by Peptide Institute, Inc.) and Adjuvant Incomplete Freund (manufactured by DIFCO), using a Handy Micro Homogenizer (manufactured by Microtec Nition) under ice-cooling. The collagen emulsion thus prepared was intracutaneously administered at 10 sites in the back of each rat at a dose of 0.1 mL/site, to perform initial sensitization of the rat. Seven days after initial sensitization, 0.12 mL of the same collagen emulsion was intracutaneously administered to the tail head of each rat, to perform booster sensitization.
Drug administration was conducted from the day after the initial sensitization through 18 days thereafter. Drug A and Drugs B-1, B-2 and B-4 were all orally administered two times a day, in the morning (9:00 to 11:00 AM) and in the evening (15:30 to 17:30 PM). Drug B-3 was orally administered once a day, around noon (11:30 AM to 13:30 PM).
14 Days and 18 days after the initial sensitization, respectively, the hindlimbs volume was measured again for each rat, and the difference between each of the values and the Pre value was determined to calculate the edema volume for both hindlimbs. The sum of the edema volumes for both hindlimbs measured 14 days and 18 days after the initial sensitization was calculated as the Edema Index, and this was taken as an index for the effect of the drug.
The Edema Index is represented by an average value±standard error for 8 rats in each group. Also, the decrease rate is represented by the formula: ((X−Y)/X)×100 (wherein X: average value of Edema Index for the control group, Y: average value of Edema Index for each group).

Row | Compound | Relative index (10 mg/kg, two times a day) | Decrease rate (%) (10 mg/kg, two times a day) | Edema Index (10 mg/kg, two times a day) | Relative index (1 mg/kg, two times a day) | Decrease rate (%) (1 mg/kg, two times a day) | Edema Index (1 mg/kg, two times a day) | Relative index (0.2 mg/kg, once a day) | Decrease rate (%) (0.2 mg/kg, once a day) | Edema Index (0.2 mg/kg, once a day) | Relative index (3 mg/kg, two times a day) | Decrease rate (%) (3 mg/kg, two times a day) | Decrease rate of Edema Index vs control group (%) (3 mg/kg) | Edema Index (3 mg/kg, two times a day, through 18 days after initial sensitization, sum of edema volumes of both hindlimbs at days 14 and 18) | Decrease rate of Edema Index vs control group (%) (10 mg/kg)
1 | CSc1ccc(-c2nn(Cc3ccccc3)c(=O)cc2-c2ccc(Cl)cc2)cc1 [Drug A, 2-benzyl-5-(4-chlorophenyl)-6-[4-(methylthio)phenyl]-2H-pyridazin-3-one] | 0.81 | 19 | 2.93 ± 0.22 | – | – | – | – | – | – | – | – | – | – | –
2 | O=C(O)Cc1ccccc1Nc1c(Cl)cccc1Cl [Drug B-1, diclofenac sodium] | – | – | – | 0.33 | 67 | 1.20 ± 0.26 | – | – | – | – | – | – | – | –
3 | Cc1cnc(NC(=O)C2=C(O)c3ccccc3S(=O)(=O)N2C)s1 [Drug B-3, meloxicam] | – | – | – | – | – | – | 0.58 | 42 | 2.04 ± 0.10 | – | – | – | – | –
4 | Cc1ccc(-c2cc(C(F)(F)F)nn2-c2ccc(S(N)(=O)=O)cc2)cc1 [Drug B-4, celecoxib] | 0.46 | 54 | 1.86 ± 0.19 | 0.70 | 30 | 3.41 ± 0.16 | – | – | – | 0.61 | 39 | 39 | 2.46 ± 0.22 | 54
